Experimental data from PubChem BioAssay AID330 (DTP/NCI, 2004).
Several values for one entry are separate records, joined by “and”; a condition that tells them apart may be missing. Equal values may be shown once. Inconclusive results and toxic doses are left out. Rule for the calls: active = survival T/C of 150% or more; inactive = T/C below 125% in these data.

System: P388 leukemia ip, CD2F1 mice, survival T/C
Test: NCI In Vivo Anticancer Drug Screen. Data for tumor model P388 Leukemia (intraperitoneal) in CD2F1 (CDF1) mice
Details: endpoint: median survival time, higher = longer survival
Procedure, shortened: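 Mice carrying the transplanted tumor received test compound or vehicle. Survival was recorded in each group, and the value is the treated-group measurement divided by that of the vehicle-treated control group.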

[1] = dose: 6.25 mg/kg/injection, schedule: Q01DX009 (ip), vehicle: saline with Tween-80
[2] = dose: 12.5 mg/kg/injection, schedule: Q01DX009 (ip), vehicle: saline with Tween-80
[3] = dose: 25.0 mg/kg/injection, schedule: Q01DX009 (ip), vehicle: saline with Tween-80
[4] = dose: 50.0 mg/kg/injection, schedule: Q01DX009 (ip), vehicle: saline with Tween-80

Measured: T/C

Nc1nc(N)c2nc3c(nc2n1)C(=O)N(c1ccc(C(=O)O)cc1)C3
inactive: [1] 106 % of control | [2] 115 % of control | [3] 117 % of control | [4] 108 % of control

CC1(C)CCCC12C=NCC2 (centres undefined)
inactive: [1] 99 % of control | [2] 95 % of control | [3] 102 % of control | [4] 101 % of control

CCc1cc2nc3c(=O)[nH]c(=O)nc-3n(CCN(CCO)CCO)c2cc1CC
inactive: dose: 60.0 mg/kg/injection, schedule: Q01DX005 (ip), vehicle: saline with Tween-80 99 % of control | dose: 120.0 mg/kg/injection, schedule: Q01DX005 (ip), vehicle: saline with Tween-80 116 % of control | dose: 240.0 mg/kg/injection, schedule: Q01DX005 (ip), vehicle: saline with Tween-80 108 % of control

OCC1CC=CCC1CO (centres undefined)
inactive: [4] 96 % of control | dose: 100.0 mg/kg/injection, schedule: Q01DX009 (ip), vehicle: saline with Tween-80 101 % of control | dose: 200.0 mg/kg/injection, schedule: Q01DX009 (ip), vehicle: saline with Tween-80 100 % of control

O=c1cc(O)cc[nH]1
inactive: dose: 400.0 mg/kg/injection, schedule: Q01DX009 (ip), vehicle: saline 100 % of control and 96 % of control | dose: 600.0 mg/kg/injection, schedule: Q01DX009 (ip), vehicle: saline 101 % of control and 106 % of control

Clc1cccc(Cl)c1C(Nc1cnccn1)Nc1cnccn1
inactive: dose: 25.0 mg/kg/injection, schedule: Q01DX005 (ip), vehicle: Klucel (hydroxypropylcellulose) (HPC) 101 % of control and 104 % of control | dose: 50.0 mg/kg/injection, schedule: Q01DX005 (ip), vehicle: Klucel (hydroxypropylcellulose) (HPC) 101 % of control (2×) and 116 % of control | dose: 100.0 mg/kg/injection, schedule: Q01DX005 (ip), vehicle: Klucel (hydroxypropylcellulose) (HPC) 106 % of control and 113 % of control
